Experimental data published in PubChem BioAssay AID256 (DTP/NCI, 2004).
“And” between values parts separate entries of the source, which are not always exact repeats. Equal values may be shown once. Inconclusive results and toxic doses are left out. How the source made its calls: active means survival T/C of 150% or more; inactive means T/C below 125% in these data.

Tested on: CD2F1 mice, L1210 leukemia ip, survival T/C
Assay: NCI In Vivo Anticancer Drug Screen. Data for tumor model L1210 Leukemia (intraperitoneal) in CD2F1 (CDF1) mice
Settings: higher = longer survival
How it was run: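 Ratio T/C, where T is the treated-group value and C the vehicle-dosed control value, from mice implanted with a transplantable tumor.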

[1] = endpoint: mean survival time, dose: 100.0 mg/kg/injection, schedule: Q01DX001 (ip), vehicle: saline with Tween-80
[2] = endpoint: mean survival time, dose: 100.0 mg/kg/injection, schedule: Q01DX009 (ip), vehicle: saline with Tween-80
[3] = endpoint: mean survival time, dose: 200.0 mg/kg/injection, schedule: Q01DX001 (ip), vehicle: saline with Tween-80
[4] = endpoint: mean survival time, dose: 200.0 mg/kg/injection, schedule: Q01DX009 (ip), vehicle: saline with Tween-80
[5] = endpoint: mean survival time, dose: 400.0 mg/kg/injection, schedule: Q01DX001 (ip), vehicle: saline with Tween-80
[6] = endpoint: mean survival time, dose: 400.0 mg/kg/injection, schedule: Q01DX009 (ip), vehicle: saline with Tween-80
[7] = endpoint: mean survival time, dose: 100.0 mg/kg/injection, schedule: Q01DX001 (ip), vehicle: saline
[8] = endpoint: mean survival time, dose: 50.0 mg/kg/injection, schedule: Q01DX009 (ip), vehicle: saline
[9] = endpoint: mean survival time, dose: 100.0 mg/kg/injection, schedule: Q01DX009 (ip), vehicle: saline
[10] = endpoint: mean survival time, dose: 12.5 mg/kg/injection, schedule: Q01DX009 (ip), vehicle: saline with Tween-80
[11] = endpoint: mean survival time, dose: 50.0 mg/kg/injection, schedule: Q01DX009 (ip), vehicle: saline with Tween-80
[12] = endpoint: mean survival time, dose: 100.0 mg/kg/injection, schedule: Q04DX003 (ip), vehicle: Klucel (hydroxypropylcellulose) (HPC)
[13] = endpoint: mean survival time, dose: 200.0 mg/kg/injection, schedule: Q04DX003 (ip), vehicle: Klucel (hydroxypropylcellulose) (HPC)
[14] = endpoint: mean survival time, dose: 400.0 mg/kg/injection, schedule: Q04DX003 (ip), vehicle: Klucel (hydroxypropylcellulose) (HPC)
[15] = endpoint: mean survival time, dose: 200.0 mg/kg/injection, schedule: Q01DX009 (ip), vehicle: saline

Measured: T/C

O=C(O)c1cccc2[nH][nH]c(=O)c12
inactive: [1] 100 % of control | [2] 101 % of control | [3] 102 % of control | [4] 100 % of control | [5] 100 % of control | [6] 98 % of control

CC([NH-])C([NH-])O.[I][Pt+2][I] (configuration not stated)
inactive: endpoint: mean survival time, dose: 6.25 mg/kg/injection, schedule: Q04DX003 (ip), vehicle: saline with Tween-80 97 % of control | endpoint: mean survival time, dose: 12.5 mg/kg/injection, schedule: Q04DX003 (ip), vehicle: saline with Tween-80 115 % of control | endpoint: mean survival time, dose: 25.0 mg/kg/injection, schedule: Q04DX003 (ip), vehicle: saline with Tween-80 121 % of control

Cc1cc(C)c2c(C#N)cn(-c3ccccc3)c2n1
inactive: [7] 104 % of control | endpoint: mean survival time, dose: 200.0 mg/kg/injection, schedule: Q01DX001 (ip), vehicle: saline 100 % of control | endpoint: mean survival time, dose: 400.0 mg/kg/injection, schedule: Q01DX001 (ip), vehicle: saline 100 % of control

NC(=O)CSc1ccc(Cl)cc1
inactive: [2] 113 % of control | [4] 94 % of control | [6] 102 % of control

CN(C)CC(=O)N/N=C\c1ccc([N+](=O)[O-])s1
inactive: [8] 91 % of control | [9] 93 % of control

Nc1nnc[se]1
inactive: endpoint: mean survival time, dose: 3.12 mg/kg/injection, schedule: Q01DX009 (ip), vehicle: saline with Tween-80 102 % of control and 104 % of control | endpoint: mean survival time, dose: 6.25 mg/kg/injection, schedule: Q01DX009 (ip), vehicle: saline with Tween-80 109 % of control and 110 % of control | [10] 116 % of control and 117 % of control and 110 % of control | endpoint: mean survival time, dose: 25.0 mg/kg/injection, schedule: Q01DX009 (ip), vehicle: saline with Tween-80 120 % of control | [11] 120 % of control and 98 % of control | [2] 105 % of control | endpoint: median survival time, dose: 6.25 mg/kg/injection, schedule: Q01DX009 (ip), vehicle: saline with Tween-80 106 % of control | endpoint: median survival time, dose: 12.5 mg/kg/injection, schedule: Q01DX009 (ip), vehicle: saline with Tween-80 109 % of control | endpoint: median survival time, dose: 25.0 mg/kg/injection, schedule: Q01DX009 (ip), vehicle: saline with Tween-80 108 % of control

O=C([O][Bi]([c]1ccccc1)[c]1ccccc1)c1ccccc1
inactive: endpoint: median survival time, dose: 6.25 mg/kg/injection, schedule: Q01DX009 (ip), vehicle: Klucel (hydroxypropylcellulose) (HPC) 97 % of control | endpoint: median survival time, dose: 12.5 mg/kg/injection, schedule: Q01DX009 (ip), vehicle: Klucel (hydroxypropylcellulose) (HPC) 95 % of control | endpoint: median survival time, dose: 25.0 mg/kg/injection, schedule: Q01DX009 (ip), vehicle: Klucel (hydroxypropylcellulose) (HPC) 101 % of control

C(=C(/C=C/c1ccccc1)/C=C/c1ccccc1)C(=C/c1ccccc1)/c1ccccc1
inactive: endpoint: mean survival time, dose: 12.5 mg/kg/injection, schedule: Q01DX001 (ip), vehicle: saline with Tween-80 100 % of control | [10] 91 % of control | endpoint: mean survival time, dose: 25.0 mg/kg/injection, schedule: Q01DX001 (ip), vehicle: saline with Tween-80 90 % of control | endpoint: mean survival time, dose: 50.0 mg/kg/injection, schedule: Q01DX001 (ip), vehicle: saline with Tween-80 92 % of control | [11] 86 % of control

CN1C(CC(O)(c2ccccc2)c2ccccc2)CCCC1CC(O)(c1ccccc1)c1ccccc1 (configuration not stated)
inactive: [1] 91 % of control | [3] 96 % of control | [5] 91 % of control

CC(O)(CCc1ccccc1)CC(O)(C(F)(F)F)C(F)(F)F (configuration not stated)
inactive: endpoint: mean survival time, dose: 100.0 mg/kg/injection, schedule: Q01DX009 (ip), vehicle: other 96 % of control | [2] 97 % of control | endpoint: mean survival time, dose: 200.0 mg/kg/injection, schedule: Q01DX009 (ip), vehicle: other 102 % of control | [4] 102 % of control | endpoint: mean survival time, dose: 400.0 mg/kg/injection, schedule: Q01DX009 (ip), vehicle: other 98 % of control | [6] 108 % of control

CCCCC(NC(=O)CCl)C(=O)O (configuration not stated)
inactive: endpoint: mean survival time, dose: 100.0 mg/kg/injection, schedule: Q04DX002 (ip), vehicle: saline with Tween-80 95 % of control | endpoint: mean survival time, dose: 200.0 mg/kg/injection, schedule: Q04DX002 (ip), vehicle: saline with Tween-80 103 % of control

O=C1C=C(N2CCCC2)c2ccccc21
inactive: [12] 106 % of control | [13] 97 % of control | [14] 95 % of control

CCN(CC)CCOC(=O)Cc1cccc2c(=O)cc(-c3ccccc3)oc12
inactive: endpoint: mean survival time, dose: 12.5 mg/kg/injection, schedule: Q01DX009 (ip), vehicle: Klucel (hydroxypropylcellulose) (HPC) 95 % of control | endpoint: mean survival time, dose: 25.0 mg/kg/injection, schedule: Q01DX009 (ip), vehicle: Klucel (hydroxypropylcellulose) (HPC) 95 % of control | endpoint: mean survival time, dose: 25.0 mg/kg/injection, schedule: Q01DX009 (ip), vehicle: saline 95 % of control | endpoint: mean survival time, dose: 50.0 mg/kg/injection, schedule: Q01DX009 (ip), vehicle: Klucel (hydroxypropylcellulose) (HPC) 92 % of control | [8] 111 % of control | endpoint: mean survival time, dose: 100.0 mg/kg/injection, schedule: Q01DX009 (ip), vehicle: Klucel (hydroxypropylcellulose) (HPC) 89 % of control | [9] 96 % of control | endpoint: mean survival time, dose: 200.0 mg/kg/injection, schedule: Q01DX009 (ip), vehicle: Klucel (hydroxypropylcellulose) (HPC) 87 % of control | [15] 111 % of control | endpoint: mean survival time, dose: 400.0 mg/kg/injection, schedule: Q01DX009 (ip), vehicle: Klucel (hydroxypropylcellulose) (HPC) 93 % of control

CC(=O)Nc1cccc(N)c1
inactive: endpoint: mean survival time, dose: 100.0 mg/kg/injection, schedule: Q04DX003 (ip), vehicle: saline 102 % of control

CS(C)(O)NC(N)=O
inactive: endpoint: median survival time, dose: 25.0 mg/kg/injection, schedule: Q01DX009 (ip), vehicle: water 93 % of control | endpoint: median survival time, dose: 50.0 mg/kg/injection, schedule: Q01DX009 (ip), vehicle: water 103 % of control | endpoint: median survival time, dose: 100.0 mg/kg/injection, schedule: Q01DX009 (ip), vehicle: water 102 % of control | endpoint: median survival time, dose: 200.0 mg/kg/injection, schedule: Q01DX009 (ip), vehicle: water 91 % of control | endpoint: median survival time, dose: 400.0 mg/kg/injection, schedule: Q01DX009 (ip), vehicle: water 101 % of control

CC12CCC(=O)C=C1CCC1C2CCC2(C)C1CCC2(O)C(=O)Cn1c(=O)[nH]cc(F)c1=O (configuration not stated)
inactive: endpoint: mean survival time, dose: 12.5 mg/kg/injection, schedule: Q04DX003 (ip), vehicle: Klucel (hydroxypropylcellulose) (HPC) 93 % of control | endpoint: mean survival time, dose: 25.0 mg/kg/injection, schedule: Q04DX003 (ip), vehicle: Klucel (hydroxypropylcellulose) (HPC) 96 % of control | endpoint: mean survival time, dose: 50.0 mg/kg/injection, schedule: Q04DX003 (ip), vehicle: Klucel (hydroxypropylcellulose) (HPC) 93 % of control | [12] 100 % of control | [13] 96 % of control

C1CCC(C2CCCC[N-]2)[N-]C1.C1CCC(C2CCCC[N-]2)[N-]C1.O=C(O)C(=O)O.[Ru+4] (configuration not stated)
inactive: endpoint: mean survival time, dose: 3.13 mg/kg/injection, schedule: Q04DX003 (ip), vehicle: water 101 % of control | endpoint: mean survival time, dose: 6.25 mg/kg/injection, schedule: Q04DX003 (ip), vehicle: water 93 % of control | endpoint: mean survival time, dose: 12.5 mg/kg/injection, schedule: Q04DX003 (ip), vehicle: water 96 % of control | endpoint: mean survival time, dose: 25.0 mg/kg/injection, schedule: Q04DX003 (ip), vehicle: water 93 % of control | endpoint: mean survival time, dose: 50.0 mg/kg/injection, schedule: Q04DX003 (ip), vehicle: water 93 % of control | endpoint: mean survival time, dose: 100.0 mg/kg/injection, schedule: Q04DX003 (ip), vehicle: water 95 % of control | endpoint: mean survival time, dose: 200.0 mg/kg/injection, schedule: Q04DX003 (ip), vehicle: water 91 % of control

FCCc1ccc(F)cc1
inactive: [1] 101 % of control | endpoint: mean survival time, dose: 100.0 mg/kg/injection, schedule: Q04DX003 (ip), vehicle: saline sonified 93 % of control | [3] 100 % of control | endpoint: mean survival time, dose: 200.0 mg/kg/injection, schedule: Q04DX003 (ip), vehicle: saline sonified 100 % of control | [5] 101 % of control | endpoint: mean survival time, dose: 400.0 mg/kg/injection, schedule: Q04DX003 (ip), vehicle: saline sonified 98 % of control

COC(=O)c1cc(N(CCCl)CCCl)ccc1N=Nc1ccc([N+](=O)[O-])cc1
inactive: [12] 109 % of control | [13] 115 % of control | [14] 117 % of control

Nc1nc2c(ncn2-c2cccc(NC(=O)CBr)c2)c(=O)[nH]1
inactive: endpoint: mean survival time, dose: 37.5 mg/kg/injection, schedule: Q01DX001 (ip), vehicle: saline with Tween-80 95 % of control | endpoint: mean survival time, dose: 75.0 mg/kg/injection, schedule: Q01DX001 (ip), vehicle: saline with Tween-80 100 % of control | endpoint: mean survival time, dose: 150.0 mg/kg/injection, schedule: Q01DX001 (ip), vehicle: saline with Tween-80 92 % of control

CC(C)(C)[N+](=O)[O-]
inactive: [8] 93 % of control | [9] 93 % of control | [15] 93 % of control

[O-][n+]1ccccc1F
inactive: [7] 104 % of control
